How the values were obtained:
Assay in all cases: relative viability (nuclei count vs DMSO), 5 days (fraction); higher = more cells survive
BGJ398 + Palbociclib = compound: CCN1CCN(c2ccc(Nc3cc(N(C)C(=O)Nc4c(Cl)c(OC)cc(OC)c4Cl)ncn3)cc2)CC1 [BGJ398] + CC(=O)c1c(C)c2cnc(Nc3ccc(N4CCNCC4)cn3)nc2n(C2CCCC2)c1=O [Palbociclib] (partner 0.5 µM)
Procedure, shortened: (§1)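 Medians of duplicate plates are given as relative viability. That measure is the nuclei count in treated wells divided by the count in vehicle wells. Counts were taken on 4× images of lung cancer cell lines in 1536-well plates, 5 days after pin-tool dosing the day after seeding with one drug alone or a fixed anchor-drug dose plus five library-drug doses (not always all listed) in √10 steps.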

BGJ398 + Phenformin = compound: CCN1CCN(c2ccc(Nc3cc(N(C)C(=O)Nc4c(Cl)c(OC)cc(OC)c4Cl)ncn3)cc2)CC1 [BGJ398] + N=C(N)NC(=N)NCCc1ccccc1 [Phenformin] (partner 250 µM)
Procedure, shortened: as §1

BGJ398 + Luminespib = compound: CCN1CCN(c2ccc(Nc3cc(N(C)C(=O)Nc4c(Cl)c(OC)cc(OC)c4Cl)ncn3)cc2)CC1 [BGJ398] + CCNC(=O)c1noc(-c2cc(C(C)C)c(O)cc2O)c1-c1ccc(CN2CCOCC2)cc1 [Luminespib] (partner 0.01 µM)
Procedure, shortened: as §1

[1] = compound: C1=CC2=NC=CN=C2C=C1/C=C/3\C(=O)NC(=O)S3 + CS(=O)(=O)CCNCc1ccc(-c2ccc3ncnc(Nc4ccc(OCc5cccc(F)c5)c(Cl)c4)c3c2)o1 [Lapatinib] (partner 2 µM)
Procedure, shortened: as §1

| Cell Line | relative viability (BGJ398 + Palbociclib; first compound 0.01 µM) | relative viability (BGJ398 + Palbociclib; first compound 0.03162 µM) | relative viability (BGJ398 + Palbociclib; first compound 0.1 µM) | relative viability (BGJ398 + Palbociclib; first compound 0.3162 µM) | relative viability (BGJ398 + Palbociclib; first compound 1 µM) | relative viability (BGJ398 + Phenformin; first compound 0.01 µM) | relative viability (BGJ398 + Phenformin; first compound 0.03162 µM) | relative viability (BGJ398 + Phenformin; first compound 0.1 µM) | relative viability (BGJ398 + Phenformin; first compound 0.3162 µM) | relative viability (BGJ398 + Phenformin; first compound 1 µM) | relative viability (BGJ398 + Luminespib; first compound 0.01 µM) | relative viability (BGJ398 + Luminespib; first compound 0.03162 µM) | relative viability (BGJ398 + Luminespib; first compound 0.1 µM) | relative viability (BGJ398 + Luminespib; first compound 0.3162 µM) | relative viability (BGJ398 + Luminespib; first compound 1 µM) | relative viability ([1]; first compound 0.02 µM) | relative viability ([1]; first compound 0.06325 µM) | relative viability ([1]; first compound 0.2 µM) | relative viability ([1]; first compound 0.6325 µM) | relative viability ([1]; first compound 2 µM) |
| --- | --- | --- | --- | --- | --- | --- | --- | --- | --- | --- | --- | --- | --- | --- | --- | --- | --- | --- | --- | --- |
| NCI-H1993 | 0.674 | 0.639 | 0.655 | 0.692 | 0.724 | 0.554 | 0.485 | 0.479 | 0.523 | 0.575 | 0.962 | 0.916 | 1.08 | 0.954 | 0.737 | 0.784 | 0.776 | 0.846 | 0.829 | 0.743 |
| NCI-H1734 | 0.329 | 0.352 | 0.355 | 0.359 | 0.355 | 0.368 | 0.398 | 0.408 | 0.376 | 0.432 | 0.178 | 0.179 | 0.22 | 0.171 | 0.17 | 1.02 |  | 1.11 | 0.999 | 0.756 |
| HOP-62 | 0.464 | 0.509 | 0.537 | 0.473 | 0.492 | 0.649 | 0.704 | 0.737 | 0.604 | 0.773 | 0.89 | 0.919 | 1.03 | 0.868 | 0.897 | 1.04 | 0.796 | 0.944 | 1.05 | 0.958 |
| LOU-NH91 | 0.555 | 0.544 | 0.553 | 0.559 | 0.536 | 0.676 |  | 0.712 | 0.455 | 0.474 | 0.34 |  | 0.327 | 0.312 | 0.301 | 0.734 | 0.786 | 0.81 | 0.739 | 0.585 |
| NCI-H2228 | 0.645 | 0.885 | 0.922 | 0.638 | 0.738 | 0.328 | 0.32 | 0.243 | 0.299 | 0.28 | 0.111 | 0.141 | 0.152 | 0.139 | 0.128 | 0.946 | 1.15 | 0.97 | 0.903 | 0.932 |
| PC-14 | 0.505 | 0.524 | 0.664 |  | 0.513 | 0.586 |  | 0.642 |  | 0.369 | 0.151 |  | 0.119 |  | 0.134 | 0.326 | 0.316 | 0.284 | 0.348 | 0.24 |
| NCI-H1437 | 0.383 | 0.309 | 0.323 | 0.337 | 0.278 | 0.265 | 0.34 | 0.314 | 0.268 | 0.281 | 1.18 | 1.19 | 1.05 | 1.12 | 1.11 | 0.791 | 0.825 | 0.806 | 0.715 | 0.572 |
| NCI-H460 | 0.209 | 0.169 | 0.118 | 0.206 | 0.0801 | 0.491 | 0.565 | 0.622 | 0.472 | 0.465 | 0.0344 | 0.0414 | 0.0281 | 0.0308 | 0.0303 | 0.832 | 1.15 | 1.03 | 0.815 | 0.689 |
| NCI-H1666 | 0.659 | 0.631 | 0.666 | 0.641 | 0.638 | 0.55 | 0.609 | 0.622 | 0.581 | 0.557 | 1 | 0.998 | 0.99 | 1.04 | 0.988 | 0.468 | 0.51 | 0.693 | 0.643 | 0.499 |
| NCI-H1651 | 0.507 | 0.561 | 0.554 | 0.54 | 0.498 | 0.303 | 0.394 | 0.381 | 0.325 | 0.274 | 0.989 | 0.811 | 0.9 | 0.949 | 0.773 | 0.793 | 0.899 | 1.05 | 0.718 | 0.685 |
| NCI-H1755 | 0.464 | 0.473 | 0.461 | 0.468 | 0.441 | 0.533 | 0.669 | 0.618 | 0.656 | 0.601 | 0.498 | 0.363 | 0.339 | 0.606 | 0.417 | 0.926 | 0.951 | 1.04 | 0.988 | 0.928 |
| NCI-H661 | 0.422 | 0.406 | 0.384 | 0.4 | 0.398 | 0.286 | 0.316 | 0.295 | 0.302 | 0.291 | 0.926 | 0.936 | 0.937 | 0.851 | 0.852 | 0.46 | 0.495 | 0.464 | 0.45 | 0.39 |
| HARA | 0.242 | 0.257 | 0.228 | 0.289 | 0.188 | 0.442 | 0.545 | 0.482 | 0.319 | 0.382 | 0.652 | 0.862 | 0.682 | 0.374 | 0.679 | 0.668 | 0.984 | 0.997 | 0.633 | 0.31 |
| NCI-H23 | 0.471 | 0.601 | 0.591 | 0.471 | 0.475 | 0.688 | 0.904 | 0.811 | 0.761 | 0.756 | 0.228 | 0.213 | 0.203 | 0.22 | 0.189 | 0.887 | 1.12 | 1.07 | 1.15 | 0.759 |
| LCLC-97TM1 | 0.177 | 0.221 | 0.262 | 0.197 | 0.267 | 0.393 | 0.446 | 0.442 | 0.429 | 0.44 | 0.703 | 0.859 | 0.857 | 0.823 | 0.797 | 0.751 | 1.12 | 1.73 | 0.817 | 0.27 |
| EPLC-272H | 0.32 | 0.314 | 0.324 | 0.359 | 0.358 | 0.243 | 0.283 | 0.272 | 0.247 | 0.38 | 0.29 | 0.235 | 0.21 | 0.716 | 0.451 | 0.895 | 1.18 | 1.11 | 0.916 | 0.576 |

— the supplement of paper PMC10307832
